This is an account of results in patent publication US6423854B1, “Aminophenol derivatives and their use in cosmetics” (L'Oreal, priority 1997, dated 2002).

The subject of this experiment is co-culture of keratinocytes and melanocytes. The experiment in a line: Inhibition of melanogenesis (depigmenting activity) in a co-culture of keratinocytes and melanocytes. Type of experiment: cell-based. The settings on record: for Class (maximum depigmenting activity): inhibition of melanogenesis relative to control; for IC50: co-culture of keratinocytes and melanocytes, read-out: IC50 (concentration for which a 50% inhibition of melanogenesis is observed). The method, then: This test corresponds to the one described in patent FR 2,734,825 filed by the Applicant, as well as in the article by R. Schmidt, P. Krien and M. Régnier, Anal. Biochem., 235(2), 113-18, (1996). This test is thus carried out on a co-culture of keratinocytes and melanocytes.
For each test compound, the IC50 value, which corresponds to the micromolar (μM) concentration for which a 50% inhibition of melanogenesis is observed, is determined.
Moreover, each of these compounds is classed as regards their maximum depigmenting activity:
Class 1: 10 to 30% inhibition of melanogenesis relative to the control (same experiment without test compound);
Class 2: 30 to 60% inhibition of melanogenesis relative to the control (same experiment without test compound);
Class 3: 60 to 100% inhibition of melanogenesis relative to the control (same experiment without test compound).

For the compound `CCOC(=O)Nc1ccc(O)cc1` [Compound of Example 1, N-Ethyloxycarbonyl-4-aminophenol], the IC50 is 1 µM. Moreover, where the note is “1 μM”, the “Class (maximum depigmenting activity)” value is listed as 3 to 1 μM (Class 3: 60 to 100% inhibition of melanogenesis relative to the control).

For the compound `CCOC(=O)Nc1ccc(OC(=O)OCC)cc1` [Compound of Example 2, N-Ethyloxycarbonyl-O-ethyloxycarbonyl-4-aminophenol], the IC50 amounted to 50 µM. The same compound yielded a Class (maximum depigmenting activity) (200 μM) of 3 to 200.

Turning to `CC(C)CCC[C@@H](C)[C@H]1CC[C@H]2[C@@H]3CC=C4C[C@@H](OC(=O)Nc5ccc(O)cc5)CC[C@]4(C)[C@H]3CC[C@]12C` [Compound of Example 3, N-Cholesteryloxycarbonyl-4-aminophenol], the IC50 is 10 µM. This compound also had a Class (maximum depigmenting activity) (200 μM) of 3 to 200.

Turning to `O=c1cc(CO)occ1O` [Kojic acid, reference compound], the IC50 was 500 µM. The Class (maximum depigmenting activity) (500 μM) lay in the range of 2 to 500.
